For orientation: half-life means how long it takes for the measured level to halve. Lower therefore signals fast loss. By MIC is commonly meant the smallest concentration in the dilution series that meets the test's criterion for growth inhibition.

A short description of series [1]: Half life of compound in HEPES buffer measured at pH 7.5 and 30 DegC by HPLC analysis. The format is physicochemical.
A short description of series [2]: Drug degradation in HEPES buffer assessed as decomposition measured at pH 7.5 and 30 DegC after 21 hrs by HPLC analysis. The format is physicochemical. The conditions noted are these: read-out: Drug degradation.
A further series deals with Escherichia coli. Briefly: Antimicrobial activity against Escherichia coli K-12 measured after 19 hrs. The format is functional. The conditions noted are these: K-12, 19 h.
Series [3] in a line: Stability of compound in HEPES buffer assessed as hydrolysis measured at pH 7.5 and 30 DegC after 9 hrs by HPLC analysis. The format is physicochemical. The settings on record: pH 7.5, 9 h.

In brackets after ≈: the same amount, converted by molar mass.

In the case of `CNCC(=O)OCOC(=O)N1CCN(c2cc3c(cc2F)c(=O)c(C(=O)O)cn3C2CC2)CC1`, the half-life in series [1] was 0.35 h.
Molecule `CNCC(=O)OC(C)OC(=O)N1CCN(c2cc3c(cc2F)c(=O)c(C(=O)O)cn3C2CC2)CC1` (stereo not given) gave a half-life in series [1] of 1.6 h.
For `CN[C@H](C(=O)OC(C)OC(=O)N1CCN(c2cc3c(cc2F)c(=O)c(C(=O)O)cn3C2CC2)CC1)C(C)C` (stereo not given in full), the half-life in series [1] is 2.4 h.
For `CC(OC(=O)[C@H](C)NC(=O)c1ccccc1)OC(=O)N1CCN(c2cc3c(cc2F)c(=O)c(C(=O)O)cn3C2CC2)CC1` (stereo not given in full), in series [1], the half-life was > 60 h. In addition, in series [2], the degraded at 21 h was found to be 20%.
For `CC(OC(=O)[C@@H](NC(=O)c1ccccc1)C(C)C)OC(=O)N1CCN(c2cc3c(cc2F)c(=O)c(C(=O)O)cn3C2CC2)CC1` (stereo not given in full) the same measures were > 130 h and 10%.
In the case of `CC(OC(=O)[C@H](C)NC(=O)c1cc(O)c(O)c(C(=O)N[C@H]2COC(=O)[C@@H](NC(=O)c3cccc(O)c3O)COC(=O)[C@@H](NC(=O)c3cccc(O)c3O)COC2=O)c1)OC(=O)N1CCN(c2cc3c(cc2F)c(=O)c(C(=O)O)cn3C2CC2)CC1` (stereo not given in full), the MIC against Escherichia coli is 1 µM (≈ 1.19 µg/mL). Further, the Stability entry in series [3] is “Unstable”. The half-life in series [1] is 8.1 h.
For `CC(OC(=O)[C@@H](NC(=O)c1cc(O)c(O)c(C(=O)N[C@H]2COC(=O)[C@@H](NC(=O)c3cccc(O)c3O)COC(=O)[C@@H](NC(=O)c3cccc(O)c3O)COC2=O)c1)C(C)C)OC(=O)N1CCN(c2cc3c(cc2F)c(=O)c(C(=O)O)cn3C2CC2)CC1` (stereo not given in full) the same measures were 1 µM (≈ 1.21 µg/mL), “Unstable” and 9.9 h.
The molecule `O=C(NCCCCCC(=O)N1CCN(c2cc3c(cc2F)c(=O)c(C(=O)O)cn3C2CC2)CC1)c1cc(O)c(O)c(C(=O)N[C@H]2COC(=O)[C@@H](NC(=O)c3cccc(O)c3O)COC(=O)[C@@H](NC(=O)c3cccc(O)c3O)COC2=O)c1` showed a half-life in series [1] of 8.7 h.
For `O=C(O)c1cn(C2CC2)c2cc(N3CCNCC3)c(F)cc2c1=O` [CIPROFLOXACIN], the MIC with Escherichia coli is 0.1 µM (≈ 0.0331 µg/mL).

The values above are taken from ChEMBL document CHEMBL3621188, “Evaluation of (acyloxy)alkyl ester linkers for antibiotic release from siderophore-antibiotic conjugates” (Bioorg Med Chem Lett, 2015).
